In ChEMBL document CHEMBL5543142, “Discovery of YFJ-36: Design, Synthesis, and Antibacterial Activities of Catechol-Conjugated β-Lactams against Gram-Negative Bacteria” (J Med Chem, 2024):
Converted amounts (≈) assume the structure as drawn.

Assays:
Acinetobacter baumannii [1] = assay: Antibacterial activity against OXA-23 producing multidrug-resistant Acinetobacter baumannii clinical isolate 15-2 assessed as inhibition of bacterial growth incubated for 18 to 20 hrs by two fold serial dilution assay; format: functional; details: time 18-20 hrs
Escherichia coli [2] = assay: Antibacterial activity against Escherichia coli NCTC-13353 assessed as inhibition of bacterial growth incubated for 18 to 20 hrs in presence of iron-depleted CAMHB medium by two fold serial dilution assay; format: functional; details: time 18-20 hrs
Acinetobacter baumannii [3] = assay: Antibacterial activity against OXA-23 producing multidrug-resistant Acinetobacter baumannii clinical isolate 17-2 assessed as inhibition of bacterial growth incubated for 18 to 20 hrs by two fold serial dilution assay; format: functional; details: time 18-20 hrs
Klebsiella pneumoniae [4] = assay: Antibacterial activity against KPC-2 producing multidrug-resistant Klebsiella pneumoniae clinical isolate 15-3 assessed as inhibition of bacterial growth incubated for 18 to 20 hrs by two fold serial dilution assay; format: functional; details: time 18-20 hrs
Pseudomonas aeruginosa [5] = assay: Antibacterial activity against IMP-4 producing multidrug-resistant Pseudomonas aeruginosa clinical isolate 17-1 assessed as inhibition of bacterial growth incubated for 18 to 20 hrs by two fold serial dilution assay; format: functional; details: time 18-20 hrs
Acinetobacter baumannii [6] = assay: Antibacterial activity against OXA-23 producing multidrug-resistant Acinetobacter baumannii clinical isolate 15-4 assessed as inhibition of bacterial growth incubated for 18 to 20 hrs by two fold serial dilution assay; format: functional; details: time 18-20 hrs
[7] = biological target: Voltage-gated inwardly rectifying potassium channel KCNH2 (Homo sapiens, UniProt Q12809); assay: Inhibition of hERG by whole cell Qpatch assay; format: toxicity
Voltage-gated inwardly rectifying potassium channel KCNH2, sequence (Q12809 whole entry): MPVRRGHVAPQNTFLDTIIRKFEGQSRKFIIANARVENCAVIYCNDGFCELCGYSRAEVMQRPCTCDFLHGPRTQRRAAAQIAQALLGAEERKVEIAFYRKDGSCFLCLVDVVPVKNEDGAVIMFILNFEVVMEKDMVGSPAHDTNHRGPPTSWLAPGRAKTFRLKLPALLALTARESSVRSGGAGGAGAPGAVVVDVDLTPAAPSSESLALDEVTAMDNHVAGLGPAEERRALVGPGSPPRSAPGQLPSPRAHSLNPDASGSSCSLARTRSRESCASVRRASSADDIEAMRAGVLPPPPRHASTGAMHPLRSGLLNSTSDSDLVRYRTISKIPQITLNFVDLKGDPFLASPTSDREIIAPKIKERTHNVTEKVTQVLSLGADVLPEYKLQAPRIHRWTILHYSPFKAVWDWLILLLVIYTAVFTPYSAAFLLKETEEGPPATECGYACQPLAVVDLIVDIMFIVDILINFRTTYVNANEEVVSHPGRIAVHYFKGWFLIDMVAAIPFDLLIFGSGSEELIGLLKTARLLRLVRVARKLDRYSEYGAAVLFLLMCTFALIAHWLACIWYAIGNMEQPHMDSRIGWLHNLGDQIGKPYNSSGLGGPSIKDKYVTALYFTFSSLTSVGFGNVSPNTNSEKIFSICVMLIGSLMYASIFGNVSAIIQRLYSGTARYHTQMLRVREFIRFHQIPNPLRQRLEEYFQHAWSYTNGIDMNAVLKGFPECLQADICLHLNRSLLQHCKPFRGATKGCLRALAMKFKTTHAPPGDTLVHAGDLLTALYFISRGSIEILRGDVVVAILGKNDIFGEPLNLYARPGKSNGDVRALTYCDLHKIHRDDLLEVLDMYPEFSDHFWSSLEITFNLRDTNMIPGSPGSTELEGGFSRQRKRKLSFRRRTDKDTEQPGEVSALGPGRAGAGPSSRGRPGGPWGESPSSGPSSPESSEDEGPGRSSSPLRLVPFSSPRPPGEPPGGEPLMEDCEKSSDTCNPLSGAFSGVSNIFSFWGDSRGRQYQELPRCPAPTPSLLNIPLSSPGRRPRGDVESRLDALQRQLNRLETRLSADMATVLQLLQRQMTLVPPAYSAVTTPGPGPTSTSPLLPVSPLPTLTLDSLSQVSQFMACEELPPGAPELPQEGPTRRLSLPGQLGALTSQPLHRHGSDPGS

Pseudomonas aeruginosa [8] = assay: Antibacterial activity against IMP-4 producing multidrug-resistant Pseudomonas aeruginosa clinical isolate 19-5 assessed as inhibition of bacterial growth incubated for 18 to 20 hrs by two fold serial dilution assay; format: functional; details: time 18-20 hrs
Escherichia coli [9] = assay: Antibacterial activity against ESBL-producing multidrug-resistant Escherichia coli clinical isolate 14-1 assessed as inhibition of bacterial growth incubated for 18 to 20 hrs by two fold serial dilution assay; format: functional; details: time 18-20 hrs
Acinetobacter baumannii [10] = assay: Antibacterial activity against OXA-23 producing multidrug-resistant Acinetobacter baumannii clinical isolate 17-7 assessed as inhibition of bacterial growth incubated for 18 to 20 hrs by two fold serial dilution assay; format: functional; details: time 18-20 hrs
Klebsiella pneumoniae [11] = assay: Antibacterial activity against KPC-2 producing multidrug-resistant Klebsiella pneumoniae clinical isolate 15-1 assessed as inhibition of bacterial growth incubated for 18 to 20 hrs by two fold serial dilution assay; format: functional; details: time 18-20 hrs
Acinetobacter baumannii [12] = assay: Antibacterial activity against OXA-23 producing multidrug-resistant Acinetobacter baumannii clinical isolate 17-6 assessed as inhibition of bacterial growth incubated for 18 to 20 hrs by two fold serial dilution assay; format: functional; details: time 18-20 hrs
Pseudomonas aeruginosa [13] = assay: Antibacterial activity against IMP-4 producing multidrug-resistant Pseudomonas aeruginosa clinical isolate 15-5 assessed as inhibition of bacterial growth incubated for 18 to 20 hrs by two fold serial dilution assay; format: functional; details: time 18-20 hrs
Klebsiella pneumoniae [14] = assay: Antibacterial activity against KPC-2 producing multidrug-resistant Klebsiella pneumoniae clinical isolate 15-5 assessed as inhibition of bacterial growth incubated for 18 to 20 hrs by two fold serial dilution assay; format: functional; details: time 18-20 hrs
Escherichia coli [15] = assay: Antibacterial activity against Escherichia coli ATCC35218 assessed as inhibition of bacterial growth incubated for 18 to 20 hrs by two fold serial dilution assay; format: functional; details: time 18-20 hrs
Acinetobacter baumannii [16] = assay: Antibacterial activity against OXA-23 producing multidrug-resistant Acinetobacter baumannii clinical isolate 15-3 assessed as inhibition of bacterial growth incubated for 18 to 20 hrs by two fold serial dilution assay; format: functional; details: time 18-20 hrs
Klebsiella pneumoniae [17] = assay: Antibacterial activity against KPC-2 producing multidrug-resistant Klebsiella pneumoniae clinical isolate 15-2 assessed as inhibition of bacterial growth incubated for 18 to 20 hrs by two fold serial dilution assay; format: functional; details: time 18-20 hrs
Escherichia coli [18] = assay: Antibacterial activity against Escherichia coli NCTC-13353 assessed as inhibition of bacterial growth incubated for 18 to 20 hrs in presence of CAMHB medium by two fold serial dilution assay; format: functional; details: time 18-20 hrs
Escherichia coli [19] = assay: Antibacterial activity against Escherichia coli ATCC-35218 assessed as inhibition of bacterial growth incubated for 18 to 20 hrs in presence of CAMHB medium by two fold serial dilution assay; format: functional; details: time 18-20 hrs
Klebsiella pneumoniae [20] = assay: Antibacterial activity against Klebsiella pneumoniae ATCC BAA-1898 assessed as inhibition of bacterial growth incubated for 18 to 20 hrs in presence of CAMHB medium by two fold serial dilution assay; format: functional; details: time 18-20 hrs
Escherichia coli [21] = assay: Antibacterial activity against Escherichia coli ATCC-35218 assessed as inhibition of bacterial growth incubated for 18 to 20 hrs in presence of iron-depleted CAMHB medium by two fold serial dilution assay; format: functional; details: time 18-20 hrs
Escherichia coli [22] = assay: Antibacterial activity against Escherichia coli ATCC-35218 infected in ICR mouse assessed as inhibition of bacterial growth at iv after 1 and 5 hour of post-infection measured after 7 days; format: functional; details: ATCC-35218, 168 h, time 7 day
Acinetobacter baumannii [23] = assay: Antibacterial activity against OXA-23 producing multidrug-resistant Acinetobacter baumannii clinical isolate 15-5 assessed as inhibition of bacterial growth incubated for 18 to 20 hrs by two fold serial dilution assay; format: functional; details: time 18-20 hrs
Pseudomonas aeruginosa [24] = assay: Antibacterial activity against IMP-4 producing multidrug-resistant Pseudomonas aeruginosa clinical isolate 17-13 assessed as inhibition of bacterial growth incubated for 18 to 20 hrs by two fold serial dilution assay; format: functional; details: time 18-20 hrs
Acinetobacter baumannii [25] = assay: Antibacterial activity against multidrug-resistant Acinetobacter baumannii BM-2023-D2-010 infected in ICR mouse assessed as inhibition of bacterial growth by measuring its effective dose at iv after 1 and 5 hour of post-infection measured after 7 days; format: functional; details: BM-2023-D2-010, 168 h, time 7 day
Acinetobacter baumannii [26] = assay: Antibacterial activity against OXA-23 producing multidrug-resistant Acinetobacter baumannii clinical isolate 17-5 assessed as inhibition of bacterial growth incubated for 18 to 20 hrs by two fold serial dilution assay; format: functional; details: time 18-20 hrs
[27] = Plasma protein binding in mouse incubated for 35 mins by LC-MS/MS analysis; format: ADME, cell-free; details: read-out: PPB (converted)
Acinetobacter baumannii [28] = assay: Antibacterial activity against OXA-23 producing multidrug-resistant Acinetobacter baumannii clinical isolate 17-8 assessed as inhibition of bacterial growth incubated for 18 to 20 hrs by two fold serial dilution assay; format: functional; details: time 18-20 hrs
Acinetobacter baumannii [29] = assay: Antibacterial activity against multidrug-resistant Acinetobacter baumannii BM-2023-D2-010 infected in ICR mouse assessed as inhibition of bacterial growth at iv after 1 and 5 hour of post-infection measured after 7 days; format: functional; details: BM-2023-D2-010, 168 h, time 7 day
Acinetobacter baumannii [30] = assay: Antibacterial activity against OXA-23 producing multidrug-resistant Acinetobacter baumannii clinical isolate 15-1 assessed as inhibition of bacterial growth incubated for 18 to 20 hrs by two fold serial dilution assay; format: functional; details: time 18-20 hrs
Escherichia coli [31] = assay: Antibacterial activity against ESBL-producing multidrug-resistant Escherichia coli clinical isolate 14-2 assessed as inhibition of bacterial growth incubated for 18 to 20 hrs by two fold serial dilution assay; format: functional; details: time 18-20 hrs
Klebsiella pneumoniae [32] = assay: Antibacterial activity against Klebsiella pneumoniae ATCC BAA-1898 assessed as inhibition of bacterial growth incubated for 18 to 20 hrs in presence of iron-depleted CAMHB medium by two fold serial dilution assay; format: functional; details: time 18-20 hrs
Pseudomonas aeruginosa [33] = assay: Antibacterial activity against IMP-4 producing multidrug-resistant Pseudomonas aeruginosa clinical isolate 19-1 assessed as inhibition of bacterial growth incubated for 18 to 20 hrs by two fold serial dilution assay; format: functional; details: time 18-20 hrs
Acinetobacter baumannii [34] = assay: Antibacterial activity against OXA-23 producing multidrug-resistant Acinetobacter baumannii clinical isolate 17-3 assessed as inhibition of bacterial growth incubated for 18 to 20 hrs by two fold serial dilution assay; format: functional; details: time 18-20 hrs
Pseudomonas aeruginosa [35] = assay: Antibacterial activity against IMP-4 producing multidrug-resistant Pseudomonas aeruginosa clinical isolate 15-1 assessed as inhibition of bacterial growth incubated for 18 to 20 hrs by two fold serial dilution assay; format: functional; details: time 18-20 hrs
Pseudomonas aeruginosa [36] = assay: Antibacterial activity against Pseudomonas aeruginosa ATCC 27853 assessed as inhibition of bacterial growth incubated for 18 to 20 hrs by two fold serial dilution assay; format: functional; details: time 18-20 hrs
Escherichia coli [37] = assay: Antibacterial activity against ESBL-producing multidrug-resistant Escherichia coli clinical isolate 14-4 assessed as inhibition of bacterial growth incubated for 18 to 20 hrs by two fold serial dilution assay; format: functional; details: time 18-20 hrs
Pseudomonas aeruginosa [38] = assay: Antibacterial activity against IMP-4 producing multidrug-resistant Pseudomonas aeruginosa clinical isolate 19-17 assessed as inhibition of bacterial growth incubated for 18 to 20 hrs by two fold serial dilution assay; format: functional; details: time 18-20 hrs
Pseudomonas aeruginosa [39] = assay: Antibacterial activity against IMP-4 producing multidrug-resistant Pseudomonas aeruginosa clinical isolate 15-4 assessed as inhibition of bacterial growth incubated for 18 to 20 hrs by two fold serial dilution assay; format: functional; details: time 18-20 hrs
hERG (KCNH2) = hERG (KCNH2) (Homo sapiens, UniProt Q12809); assay: Inhibition of hERG at 40 uM by whole cell Qpatch assay relative to control; format: toxicity
hERG (KCNH2), sequence (Q12809 whole entry): as above

CC(C)(O/N=C(\C(=O)N[C@@H]1C(=O)N2C(C(=O)[O-])=C(C[N+]3(CCNC(=O)c4ccc(O)c(O)c4Cl)CCCC3)CS[C@H]12)c1csc(N)n1)C(=O)O [CEFIDEROCOL]
MIC (Acinetobacter baumannii [1]): 2 µg/mL (≈ 2.66 µM) | MIC (Escherichia coli [2]): 0.5 µg/mL | MIC (Acinetobacter baumannii [3]): 1 µg/mL (≈ 1.33 µM) | MIC (Klebsiella pneumoniae [4]): 8 µg/mL (≈ 10.6 µM) | MIC (Pseudomonas aeruginosa [5]): 8 µg/mL (≈ 10.6 µM) | MIC (Acinetobacter baumannii [6]): 4 µg/mL (≈ 5.32 µM) | IC50 [7]: 42 nM | MIC (Pseudomonas aeruginosa [8]): 1 µg/mL (≈ 1.33 µM) | MIC (Escherichia coli [9]): 0.125 µg/mL (≈ 0.166 µM) | MIC (Acinetobacter baumannii [10]): 2 µg/mL (≈ 2.66 µM) | MIC (Klebsiella pneumoniae [11]): 8 µg/mL (≈ 10.6 µM) | MIC (Acinetobacter baumannii [12]): 1 µg/mL (≈ 1.33 µM) | MIC (Pseudomonas aeruginosa [13]): 2 µg/mL (≈ 2.66 µM) | MIC (Klebsiella pneumoniae [14]): 8 µg/mL (≈ 10.6 µM) | MIC (Escherichia coli [15]): 0.06 µg/mL (≈ 0.0798 µM) | MIC (Acinetobacter baumannii [16]): 4 µg/mL (≈ 5.32 µM) | MIC (Klebsiella pneumoniae [17]): 4 µg/mL (≈ 5.32 µM) | MIC (Escherichia coli [18]): 0.5 µg/mL | MIC (Escherichia coli [19]): 1 µg/mL | MIC (Klebsiella pneumoniae [20]): 8 µg/mL | MIC (Escherichia coli [21]): 0.06 µg/mL | MIC (Escherichia coli [22]): 0.12 µg/mL (≈ 0.16 µM) | MIC (Acinetobacter baumannii [23]): 2 µg/mL (≈ 2.66 µM) | MIC (Pseudomonas aeruginosa [24]): 1 µg/mL (≈ 1.33 µM) | ED50 (Acinetobacter baumannii [25]): 7 mg/kg | MIC (Acinetobacter baumannii [26]): 2 µg/mL (≈ 2.66 µM) | fraction unbound at 35 min [27]: 0.801 | MIC (Acinetobacter baumannii [28]): 1 µg/mL (≈ 1.33 µM) | MIC (Acinetobacter baumannii [29]): 0.25 µg/mL (≈ 0.332 µM) | MIC (Acinetobacter baumannii [30]): 8 µg/mL (≈ 10.6 µM) | MIC (Escherichia coli [31]): 1 µg/mL (≈ 1.33 µM) | MIC (Klebsiella pneumoniae [32]): 2 µg/mL | MIC (Pseudomonas aeruginosa [33]): 2 µg/mL (≈ 2.66 µM) | MIC (Acinetobacter baumannii [34]): 1 µg/mL (≈ 1.33 µM) | MIC (Pseudomonas aeruginosa [35]): 4 µg/mL (≈ 5.32 µM) | MIC (Pseudomonas aeruginosa [36]): 2 µg/mL (≈ 2.66 µM) | MIC (Escherichia coli [37]): 2 µg/mL (≈ 2.66 µM) | MIC (Pseudomonas aeruginosa [38]): 0.5 µg/mL (≈ 0.665 µM) | MIC (Pseudomonas aeruginosa [39]): 2 µg/mL (≈ 2.66 µM)

Nc1nc(/C(=N/O[C@@H](C(=O)O)C2CCC(F)(F)CC2)C(=O)N[C@@H]2C(=O)N3C(C(=O)O)=C(CSCCNC(=O)c4ccc(O)c(O)c4Cl)CS[C@H]23)cs1.O=C(O)C(F)(F)F
MIC (Escherichia coli [2]): 0.25 µg/mL | MIC (Acinetobacter baumannii [3]): 0.5 µg/mL | MIC (Klebsiella pneumoniae [4]): 1 µg/mL | MIC (Pseudomonas aeruginosa [5]): 8 µg/mL | IC50 [7]: > 40000 nM | MIC (Pseudomonas aeruginosa [8]): 1 µg/mL | MIC (Escherichia coli [9]): 0.25 µg/mL | MIC (Acinetobacter baumannii [10]): 0.5 µg/mL | MIC (Klebsiella pneumoniae [11]): 0.25 µg/mL | MIC (Acinetobacter baumannii [12]): 1 µg/mL | MIC (Klebsiella pneumoniae [14]): 0.5 µg/mL | MIC (Escherichia coli [15]): 0.25 µg/mL | MIC (Klebsiella pneumoniae [17]): 0.25 µg/mL | MIC (Escherichia coli [18]): 1 µg/mL | MIC (Escherichia coli [19]): 1 µg/mL | MIC (Klebsiella pneumoniae [20]): 4 µg/mL | MIC (Escherichia coli [21]): ≤ 0.03 µg/mL | MIC (Escherichia coli [22]): 0.06 µg/mL | MIC (Pseudomonas aeruginosa [24]): ≤ 0.03 µg/mL | ED50 (Acinetobacter baumannii [25]): 7.3 mg/kg | MIC (Acinetobacter baumannii [26]): 0.25 µg/mL | fraction unbound at 35 min [27]: 0.105 | inhibition at 40 µM (hERG (KCNH2)): 6.67% | MIC (Acinetobacter baumannii [28]): 0.5 µg/mL | MIC (Acinetobacter baumannii [29]): 0.5 µg/mL | MIC (Escherichia coli [31]): 0.5 µg/mL | MIC (Klebsiella pneumoniae [32]): 2 µg/mL | MIC (Pseudomonas aeruginosa [33]): 2 µg/mL | MIC (Acinetobacter baumannii [34]): 0.25 µg/mL | MIC (Escherichia coli [37]): 0.125 µg/mL | MIC (Pseudomonas aeruginosa [38]): 0.25 µg/mL
